Experimental data as given in the supplement of paper PMC10733146.

Experiments:
Experiment in all cases: viability relative to DMSO control (fraction); higher = less drug effect (more viable cells)
Details in all cases: 48 h
[1] = compound: Cn1c(CCCC(=O)O)nc2cc(N(CCCl)CCCl)ccc21 [Bendamustine]
Summary of the method: (§1)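 Using 384-well plates with compounds already plated at five concentrations, one well per concentration, 4 × 10^4 primary mononuclear tumour cells were added per well. Cells were Ficoll-isolated from blood or bone marrow or came from processed lymph node, fresh or cryopreserved. They were kept for 48 h at 37 °C and 5% CO2 in RPMI-1640 supplemented with penicillin/streptomycin, L-glutamine and human serum, and viability was read as CellTiter-Glo luminescence relative to the median of 16 inner DMSO wells.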

[2] = compound: CC[C@]1(O)C[C@@H]2CN(CCc3c([nH]c4ccccc34)[C@@](C(=O)OC)(c3cc4c(cc3OC)N(C)[C@H]3[C@@](O)(C(N)=O)[C@H](O)[C@]5(CC)C=CCN6CC[C@]43[C@@H]65)C2)C1 [Vindesine]
Summary of the method: as §1

[3] = compound: COc1cc(C(=O)O)ccc1NC(=O)[C@@H]1N[C@@H](CC(C)(C)C)[C@](C#N)(c2ccc(Cl)cc2F)[C@H]1c1cccc(Cl)c1F [Idasanutlin (RS7388)]
Summary of the method: as §1

[4] = compound: CO[C@H]1C[C@@H]2CC[C@@H](C)[C@@](O)(O2)C(=O)C(=O)N2CCCC[C@H]2C(=O)O[C@H]([C@H](C)C[C@@H]2CC[C@@H](OCCO)[C@H](OC)C2)CC(=O)[C@H](C)/C=C(\C)[C@@H](O)[C@@H](OC)C(=O)[C@H](C)C[C@H](C)/C=C/C=C/C=C/1C [Everolimus]
Summary of the method: as §1

[5] = compound: CC[C@H](CO)Nc1nc(NCc2ccccc2)c2ncn(C(C)C)c2n1 [Roscovitine]
Summary of the method: as §1

[6] = compound: O=C(Nc1ccc2[nH]nc(-c3ccncc3)c2c1)[C@@H]1CCN(CC(=O)N2CCN(c3ccc(-c4ncccn4)cc3)CC2)C1
Summary of the method: as §1

[7] = compound: O=C(NO)c1cccc(C(=O)NCCc2ccccc2)c1
Summary of the method: as §1

[8] = compound: C[C@H]1C[C@@H](n2c(Nc3ccc(OC(F)(F)F)cc3)nc3cc(CCC(=O)O)ccc32)CC(C)(C)C1
Summary of the method: as §1

[9] = compound: O=C1CCC(N2C(=O)c3ccccc3C2=O)C(=O)N1 [Thalidomide]
Summary of the method: as §1

[10] = compound: c1cn2cc(-c3ccc4cn[nH]c4c3)nc(Nc3ccc(N4CCOCC4)cc3)c2n1 [Entospletinib]
Summary of the method: as §1

[11] = compound: CCNC(=O)C[C@@H]1N=C(c2ccc(Cl)cc2)c2cc(OC)ccc2-n2c(C)nnc21 [I-BET-762]
Summary of the method: as §1

[12] = compound: CCS(=O)(=O)N1CCC([C@@H](C)n2c(C)c(C(=O)NCc3c(OC)cc(C)[nH]c3=O)c3ccccc32)CC1 [CPI-169]
Summary of the method: as §1

[13] = compound: CC1(C)CCC(CN2CCN(c3ccc(C(=O)NS(=O)(=O)c4ccc(NCC5CCOCC5)c([N+](=O)[O-])c4)c(Oc4cnc5[nH]ccc5c4)c3)CC2)=C(c2ccc(Cl)cc2)C1 [Venetoclax]
Summary of the method: as §1

## primary B-PLL patient cells (S016)
[1]; 0.032 µM
  viability: 0.965
[1]; 0.16 µM
  viability: 0.953
[1]; 0.8 µM
  viability: 1.04
[1]; 4 µM
  viability: 0.864
[1]; 20 µM
  viability: 0.496
[2]; 0.016 µM
  viability: 0.255
[2]; 0.08 µM
  viability: 0.199
[2]; 0.4 µM
  viability: 0.222
[2]; 2 µM
  viability: 0.164
[2]; 10 µM
  viability: 0.0777
[3]; 0.032 µM
  viability: 0.719
[3]; 0.16 µM
  viability: 0.923
[3]; 0.8 µM
  viability: 0.333
[3]; 4 µM
  viability: 0.0502
[3]; 20 µM
  viability: 0.0489
[4]; 0.0032 µM
  viability: 0.735
[4]; 0.016 µM
  viability: 0.647
[4]; 0.08 µM
  viability: 0.665
[4]; 0.4 µM
  viability: 0.659
[4]; 2 µM
  viability: 0.697
[5]; 0.032 µM
  viability: 0.927
[5]; 0.16 µM
  viability: 1.05
[5]; 0.8 µM
  viability: 1.02
[5]; 4 µM
  viability: 1.23
[5]; 20 µM
  viability: 1.09
[6]; 0.008 µM
  viability: 1.02
[6]; 0.04 µM
  viability: 0.919
[6]; 0.2 µM
  viability: 0.953
[6]; 1 µM
  viability: 0.94
[6]; 5 µM
  viability: 0.869
[7]; 0.024 µM
  viability: 1.07
[7]; 0.12 µM
  viability: 1.03
[7]; 0.6 µM
  viability: 0.986
[7]; 3 µM
  viability: 1.05
[7]; 15 µM
  viability: 0.896
[8]; 0.024 µM
  viability: 0.932
[8]; 0.12 µM
  viability: 1.22
[8]; 0.6 µM
  viability: 1.08
[8]; 3 µM
  viability: 0.967
[8]; 15 µM
  viability: 1.03
[9]; 0.032 µM
  viability: 0.947
[9]; 0.16 µM
  viability: 0.931
[9]; 0.8 µM
  viability: 1.04
[9]; 4 µM
  viability: 1.05
[9]; 20 µM
  viability: 1.04
[10]; 0.024 µM
  viability: 0.927
[10]; 0.12 µM
  viability: 0.919
[10]; 0.6 µM
  viability: 0.934
[10]; 3 µM
  viability: 0.947
[10]; 15 µM
  viability: 0.864
[11]; 0.008 µM
  viability: 1.01
[11]; 0.04 µM
  viability: 0.976
[11]; 0.2 µM
  viability: 0.992
[11]; 1 µM
  viability: 0.918
[11]; 5 µM
  viability: 0.639
[12]; 0.024 µM
  viability: 0.946
[12]; 0.12 µM
  viability: 1.02
[12]; 0.6 µM
  viability: 1.04
[12]; 3 µM
  viability: 1.01
[12]; 15 µM
  viability: 1.2
[13]; 0.00064 µM
  viability: 0.981
[13]; 0.0032 µM
  viability: 0.834
[13]; 0.016 µM
  viability: 0.362
[13]; 0.08 µM
  viability: 0.126
[13]; 0.4 µM
  viability: 0.0603

## primary CLL patient cells (S043)
[1]; 0.032 µM
  viability: 0.993
[1]; 0.16 µM
  viability: 1.04
[1]; 0.8 µM
  viability: 0.96
[1]; 4 µM
  viability: 1.01
[1]; 20 µM
  viability: 0.743
[2]; 0.016 µM
  viability: 0.865
[2]; 0.08 µM
  viability: 0.82
[2]; 0.4 µM
  viability: 0.844
[2]; 2 µM
  viability: 0.666
[2]; 10 µM
  viability: 0.605
[3]; 0.032 µM
  viability: 0.915
[3]; 0.16 µM
  viability: 0.94
[3]; 0.8 µM
  viability: 0.792
[3]; 4 µM
  viability: 0.424
[3]; 20 µM
  viability: 0.176
[4]; 0.0032 µM
  viability: 0.823
[4]; 0.016 µM
  viability: 0.851
[4]; 0.08 µM
  viability: 0.791
[4]; 0.4 µM
  viability: 0.831
[4]; 2 µM
  viability: 0.793
[5]; 0.032 µM
  viability: 0.869
[5]; 0.16 µM
  viability: 0.972
[5]; 0.8 µM
  viability: 0.952
[5]; 4 µM
  viability: 1.08
[5]; 20 µM
  viability: 0.901
[6]; 0.008 µM
  viability: 0.757
[6]; 0.04 µM
  viability: 0.734
[6]; 0.2 µM
  viability: 0.683
[6]; 1 µM
  viability: 0.661
[6]; 5 µM
  viability: 0.629
[7]; 0.024 µM
  viability: 0.932
[7]; 0.12 µM
  viability: 0.979
[7]; 0.6 µM
  viability: 0.926
[7]; 3 µM
  viability: 0.915
[7]; 15 µM
  viability: 0.905
[8]; 0.024 µM
  viability: 0.84
[8]; 0.12 µM
  viability: 0.859
[8]; 0.6 µM
  viability: 0.895
[8]; 3 µM
  viability: 1.08
[8]; 15 µM
  viability: 0.803
[9]; 0.032 µM
  viability: 0.893
[9]; 0.16 µM
  viability: 0.892
[9]; 0.8 µM
  viability: 0.892
[9]; 4 µM
  viability: 0.939
[9]; 20 µM
  viability: 0.945
[10]; 0.024 µM
  viability: 0.988
[10]; 0.12 µM
  viability: 0.936
[10]; 0.6 µM
  viability: 0.94
[10]; 3 µM
  viability: 0.977
[10]; 15 µM
  viability: 0.947
[11]; 0.008 µM
  viability: 0.909
[11]; 0.04 µM
  viability: 0.929
[11]; 0.2 µM
  viability: 0.947
[11]; 1 µM
  viability: 0.884
[11]; 5 µM
  viability: 0.756
[12]; 0.024 µM
  viability: 0.895
[12]; 0.12 µM
  viability: 0.903
[12]; 0.6 µM
  viability: 0.877
[12]; 3 µM
  viability: 0.915
[12]; 15 µM
  viability: 0.915
[13]; 0.00064 µM
  viability: 1.04
[13]; 0.0032 µM
  viability: 0.927
[13]; 0.016 µM
  viability: 0.917
[13]; 0.08 µM
  viability: 0.81
[13]; 0.4 µM
  viability: 0.648
